Experimental data reported in publication PMC8347481, “Germacranolides from Carpesium divaricatum: Some New Data on Cytotoxic and Anti-Inflammatory Activity” (Molecules, 2021).
Read-outs that look alike come from different tables or passages of the source.

What was measured:
A375 = assay: LDH cell viability assay, melanoma cells; assay type: cell-based; details: Homo sapiens, A-375; for IC50: A375, 24 h, LDH assay
Protocol: (§1) Normal prostate epithelial cells (PNT2), two prostate cancer cell lines (Du145 and PC3), human keratinocytes (HaCaT), two melanoma cell lines (A375 and HTB140) and two colon cancer cell lines (HT29 and Caco-2) were treated with 3 at a concentration range 1.0–50.0 µg/mL. Viability of the cells was estimated using lactate dehydrogenase (LDH) assay.
(§2) Cytotoxic activity of 3 was tested on human cancer and normal cells, grouped in three panels: prostate, skin and gastrointestinal. The prostate panel comprised prostate cancer cell lines DU145 (ATCC HTB-81) and PC3 (ATCC CRL-1435) and prostate normal epithelial cells PNT2 (ECACC 95012613). Melanoma cell lines A375 (ATCC CRL-1619) and HTB140 (ATCC Hs 294T) together with human keratinocytes HaCaT (obtained as a kind gift of Prof. Marta Michalik, Department of Cell Biology, Jagiellonian University) were included in the skin panel. Two colon cancer cell lines, namely Caco-2 (ATCC HTB-37) and HT29 (ATCC HTB-38), constituted the gastrointestinal panel. Du145 cells were grown in a modified Eagle’s medium with low (1.0 g/L) glucose concentration; HT29, PC3 and PNT-2 cells were grown in Dulbecco’s modified Eagle’s medium (DMEM) and F12 HAM Nutrient Mixture; Caco-2 cells were grown in modified Eagle’s medium with nonessential amino acids (NEAA); and melanoma cells and keratinocytes were maintained in modified Eagle’s medium with high (4.5 g/L) glucose concentration. The culture media contained antibiotics and 10% fetal bovine serum (FBS). All cultures were maintained at 37 °C in a humidified, 5% CO2-containing atmosphere.
(§3) The examined compound (3) was diluted in the culture media from freshly made stock solution in MeOH (10 mg/mL) to the working concentrations (from 0 to 50 μg/mL). Cell viability was determined as described previously. […] Then, the culture medium was replaced with the medium containing different concentrations of the assessed compound (1–50 μg/mL). After 24 h of incubation, the viability of the cells was determined using colorimetric lactate dehydrogenase (LDH) assay in comparison to the controls to which corresponding aliquots of MeOH diluted with culture media were added. Cells grown in the medium without the tested compound were used as control I (negative), and the positive control (control II) was obtained by incubation of the cells in the medium containing 1% Triton X-100. LDH released from the damaged cells into the cell culture medium was quantified by measuring the absorbance at 490 nm using a Synergy II Biotek microplate reader. Cytotoxicities of the examined compounds were calculated as follows: ((absorbance of the tested sample−absorbance of control I)/(absorbance of control II−absorbance of control I)) × 100. Results were means of three independent measurements (± SD). Doxorubicin (Ebewe Pharma G.m.b.H., Unterach, Austria) was used as a reference cytostatic drug.

HTB140 = assay: LDH cell viability assay, melanoma cells; assay type: cell-based; details: Homo sapiens; for IC50: HTB140, 24 h, LDH assay
Protocol: as §1, §2, §3

[1] = system: normal and cancer cell lines (prostate, skin, gastrointestinal panels); assay: LDH cytotoxicity, whole panel of normal and cancer cell lines; assay type: cell-based; details: Homo sapiens; 24 h treatment, cell density 1.5 × 10^4; doxorubicin: except PC3 cells; read-out: IC50 range over the cell lines
Protocol: Cytotoxic activity of 3 was tested on human cancer and normal cells, grouped in three panels: prostate, skin and gastrointestinal. The prostate panel comprised prostate cancer cell lines DU145 (ATCC HTB-81) and PC3 (ATCC CRL-1435) and prostate normal epithelial cells PNT2 (ECACC 95012613). Melanoma cell lines A375 (ATCC CRL-1619) and HTB140 (ATCC Hs 294T) together with human keratinocytes HaCaT (obtained as a kind gift of Prof. Marta Michalik, Department of Cell Biology, Jagiellonian University) were included in the skin panel. Two colon cancer cell lines, namely Caco-2 (ATCC HTB-37) and HT29 (ATCC HTB-38), constituted the gastrointestinal panel. […]
The examined compound (3) was diluted in the culture media from freshly made stock solution in MeOH (10 mg/mL) to the working concentrations (from 0 to 50 μg/mL). Cell viability was determined as described previously. […] Then, the culture medium was replaced with the medium containing different concentrations of the assessed compound (1–50 μg/mL). After 24 h of incubation, the viability of the cells was determined using colorimetric lactate dehydrogenase (LDH) assay in comparison to the controls to which corresponding aliquots of MeOH diluted with culture media were added. […] LDH released from the damaged cells into the cell culture medium was quantified by measuring the absorbance at 490 nm using a Synergy II Biotek microplate reader. […]

HepG2 cells = system: HepG2 cells; design: method as in PMID 29751555; details: HepG2, cell density 2 × 10^4, 96 h treatment; cited from earlier work
HeLa cells = system: HeLa cells; design: method as in PMID 29751555; details: cell density 2 × 10^4, 96 h treatment; cited from earlier work
A459 cells = system: A459 cells; design: method as in PMID 29751555; details: cited from earlier work
[2] = LDH cell viability assay, normal prostate epithelial cells; assay type: cell-based, human; details: human, PNT2 normal prostate epithelial cells, 24 h, read-out: Cell Viability (%) ± SD
Protocol: as §1, §2, §3

PNT2 = assay: as above; assay type: cell-based, human; details: Homo sapiens, PNT2, 24 h, LDH assay
Protocol: as §1, §2, §3

Du145 = assay: LDH cell viability assay, prostate cancer cells; assay type: cell-based; details: Homo sapiens, DU-145; for IC50: Du145, 24 h, LDH assay
Protocol: as §1, §2, §3

PC3 = assay: LDH cell viability assay, prostate cancer cells; assay type: cell-based; details: Homo sapiens, PC-3; for IC50: PC3, 24 h, LDH assay
Protocol: as §1, §2, §3

[3] = LDH cell viability assay, keratinocytes; assay type: cell-based, human; details: human, HaCaT keratinocytes, read-out: Cell Viability (%) ± SD
Protocol: as §1, §2, §3

HaCaT = assay: LDH cell viability assay, keratinocytes; assay type: cell-based, human; details: Homo sapiens, 24 h, LDH assay
Protocol: as §1, §2, §3

[4] = value in parentheses, read-out: IC50 (IC50 µM) (converted)

For `C=C1C(=O)O[C@H]2[C@H]1[C@@H](O)[C@H](OC(=O)CC(C)C)[C@H](C)CCC(=O)[C@](C)(O)[C@@H]2OC(=O)C(C)C` [Compound 3], the viability at 1 µg/mL (A375; A375, 1 µg/mL, 24 h, read-out: Cell Viability (%) ± SD) was 64.2 ± 1.13%, the viability at 3 µg/mL (A375; A375, 3 µg/mL, 24 h, read-out: Cell Viability (%) ± SD) was 55.4 ± 1.44% and the viability at 5 µg/mL (A375; A375, 5 µg/mL, 24 h, read-out: Cell Viability (%) ± SD) was 43.8 ± 1.69%. For the same compound, the viability at 10 µg/mL (A375; A375, 10 µg/mL, 24 h, read-out: Cell Viability (%) ± SD) was 33 ± 2.3%, the viability at 20 µg/mL (A375; A375, 20 µg/mL, 24 h, read-out: Cell Viability (%) ± SD) was 7.09 ± 1.78% and the viability at 30 µg/mL (A375; A375, 30 µg/mL, 24 h, read-out: Cell Viability (%) ± SD) was 0.82 ± 0.65%. It also gave a viability at 50 µg/mL (A375; A375, 50 µg/mL, 24 h, read-out: Cell Viability (%) ± SD) of 0%, an IC50 (A375; [4]) of 20.4 µM and an IC50 (A375; read-out: IC50) of 9.57 ± 0.87 µg/mL. It also gave a viability at 1 µg/mL (HTB140; HTB140, 1 µg/mL, 24 h, read-out: Cell Viability (%) ± SD) of 81.4 ± 1.28%, a viability at 3 µg/mL (HTB140; HTB140, 3 µg/mL, 24 h, read-out: Cell Viability (%) ± SD) of 70.8 ± 2.37% and a viability at 5 µg/mL (HTB140; HTB140, 5 µg/mL, 24 h, read-out: Cell Viability (%) ± SD) of 50.9 ± 1.8%. For the same compound, the viability at 10 µg/mL (HTB140; HTB140, 10 µg/mL, 24 h, read-out: Cell Viability (%) ± SD) was 21.5 ± 2.53%, the viability at 20 µg/mL (HTB140; HTB140, 20 µg/mL, 24 h, read-out: Cell Viability (%) ± SD) was 4.1 ± 1.75% and the viability at 30 µg/mL (HTB140; HTB140, 30 µg/mL, 24 h, read-out: Cell Viability (%) ± SD) was 0.59 ± 0.78%. For the same compound, the viability at 50 µg/mL (HTB140; HTB140, 50 µg/mL, 24 h, read-out: Cell Viability (%) ± SD) was 0%, the IC50 (HTB140; [4]) was 13.6 µM and the IC50 (HTB140; read-out: IC50) was 6.36 ± 0.38 µg/mL. The IC50 [1] was 8.3 to 35 µM, the IC50 (HepG2 cells) was 17 µM and the IC50 (HeLa cells) was 29.4 µM. The Cytotoxicity (A459 cells) was “resistant”, the viability at 24 h, 1 µg/mL ([2]; PNT2, 1 µg/mL) was 87.1 ± 1.79% and the viability at 24 h, 3 µg/mL ([2]; PNT2, 3 µg/mL) was 77.2 ± 1.32%. It also gave a viability at 24 h, 5 µg/mL ([2]; PNT2, 5 µg/mL) of 69.4 ± 0.97%, a viability at 24 h, 10 µg/mL ([2]; PNT2, 10 µg/mL) of 52.8 ± 2.31% and a viability at 24 h, 20 µg/mL ([2]; PNT2, 20 µg/mL) of 32.5 ± 1.84%. For the same compound, the viability at 24 h, 30 µg/mL ([2]; PNT2, 30 µg/mL) was 21.4 ± 0.45%, the viability at 24 h, 50 µg/mL ([2]; PNT2, 50 µg/mL) was 3.29 ± 1.27% and the IC50 (PNT2; [4]) was 35 µM. For the same compound, the IC50 (PNT2; read-out: IC50) was 16.4 ± 0.4 µg/mL, the viability at 1 µg/mL (Du145; Du145, 1 µg/mL, 24 h, read-out: Cell Viability (%) ± SD) was 68.42 ± 0.52% and the viability at 3 µg/mL (Du145; Du145, 3 µg/mL, 24 h, read-out: Cell Viability (%) ± SD) was 56.3 ± 0.97%. It also gave a viability at 5 µg/mL (Du145; Du145, 5 µg/mL, 24 h, read-out: Cell Viability (%) ± SD) of 44.8 ± 2.05%, a viability at 10 µg/mL (Du145; Du145, 10 µg/mL, 24 h, read-out: Cell Viability (%) ± SD) of 37.7 ± 2.16% and a viability at 20 µg/mL (Du145; Du145, 20 µg/mL, 24 h, read-out: Cell Viability (%) ± SD) of 23.6 ± 1.54%. For the same compound, the viability at 30 µg/mL (Du145; Du145, 30 µg/mL, 24 h, read-out: Cell Viability (%) ± SD) was 12.5 ± 1.94%, the viability at 50 µg/mL (Du145; Du145, 50 µg/mL, 24 h, read-out: Cell Viability (%) ± SD) was 0.62 ± 0.58% and the IC50 (Du145; [4]) was 10.8 µM. The IC50 (Du145; read-out: IC50) was 5.08 ± 1.14 µg/mL, the viability at 1 µg/mL (PC3; PC3, 1 µg/mL, 24 h, read-out: Cell Viability (%) ± SD) was 78.5 ± 1.08% and the viability at 3 µg/mL (PC3; PC3, 3 µg/mL, 24 h, read-out: Cell Viability (%) ± SD) was 65 ± 1.46%. It also gave a viability at 5 µg/mL (PC3; PC3, 5 µg/mL, 24 h, read-out: Cell Viability (%) ± SD) of 49.9 ± 2.02%, a viability at 10 µg/mL (PC3; PC3, 10 µg/mL, 24 h, read-out: Cell Viability (%) ± SD) of 37.2 ± 1.27% and a viability at 20 µg/mL (PC3; PC3, 20 µg/mL, 24 h, read-out: Cell Viability (%) ± SD) of 29.2 ± 1.89%. It also gave a viability at 30 µg/mL (PC3; PC3, 30 µg/mL, 24 h, read-out: Cell Viability (%) ± SD) of 5.42 ± 2.25%, a viability at 50 µg/mL (PC3; PC3, 50 µg/mL, 24 h, read-out: Cell Viability (%) ± SD) of 0.65 ± 0.33% and an IC50 (PC3; [4]) of 19.1 µM. For the same compound, the IC50 (PC3; read-out: IC50) was 8.92 ± 1.02 µg/mL, the viability at 24 h, 1 µg/mL ([3]; 1 µg/mL) was 86.8 ± 1.7% and the viability at 24 h, 3 µg/mL ([3]; 3 µg/mL) was 74.5 ± 2.29%. For the same compound, the viability at 24 h, 5 µg/mL ([3]; 5 µg/mL) was 64.4 ± 1.33%, the viability at 24 h, 10 µg/mL ([3]; 10 µg/mL) was 30.5 ± 1.32% and the viability at 24 h, 20 µg/mL ([3]; 20 µg/mL) was 0.79 ± 0.72%. The viability at 24 h, 30 µg/mL ([3]; 30 µg/mL) was 0%, the viability at 24 h, 50 µg/mL ([3]; 50 µg/mL) was 0% and the IC50 (HaCaT; read-out: IC50) was 7.95 ± 0.15 µg/mL. For the same compound, the IC50 (HaCaT; [4]) was 17 µM.
